Values quoted from earlier work in patent US10413482B2, “Delamination resistant pharmaceutical glass containers containing active pharmaceutical ingredients” (Corning Incorporated, priority 2011, dated 2019).

Columns and labels:
[1] = tested on: patients with acute coronary syndrome (ACS); conditions: in vivo
[2] = not given; remark: listed apart in the source
[3] = for duration of action: after injection
[4] = tested on: patients with moderate to severe ulcerative colitis; conditions: in vivo
[5] = tested on: patients whose asthma cannot be adequately controlled with inhalable glucocorticoids; conditions: in vivo
[6] = once-daily
[7] = tested on: adults with late-onset LAL Deficiency

COC(=O)[C@H](Cc1cccc(C(=N)N)c1)[C@@H](C)NC(=O)c1ccc(-c2cc[n+]([O-])cc2)cc1 (mixture of isomers) [Otamixaban, reference compound]
major coronary complications [1]: reduce major coronary complications | degradation during sterilization and storage (formulations at pH between 3 and 5): decreased otamixaban degradation during sterilization and storage

[Cl][223Ra][Cl] [Radium-223, Radium-223 dichloride]
half-life [2]: 11.4 days

Insulin detemir
duration of action [3]: up to 24 hours

Vedolizumab: humanized monoclonal antibody targeting α4β7 integrin
safety and clinical remission [4]: safe and effective for inducing and maintaining clinical remission

insulin degludec
duration of action [3]: more than 24 hours

insulin regular: formulation of recombinant insulin structurally identical to the insulin produced by the human pancreas
duration of action [3]: approximately 8 hours | onset of pharmacologic effect ([3]; after subcutaneous administration): approximately one-half

lebrikizumab: humanized monoclonal antibody against interleukin-13 (IL-13)
symptoms of asthma [5]: significantly decrease the symptoms of asthma

lixisenatide
tolerability [6]: well-tolerated | glycemic control ([6]; one-step dose increase, single maintenance dose): significantly improved glycemic control

relaxin
shelf-life (approximately pH 5, 5° C., acceptable reduction of 10% in the HPLC main peak area): at least 2 years

B1: SBC-102: recombinant form of the human LAL enzyme (protein, UniProt P38571 77-399, looked up)
Lysosomal acid …: GPKPVVFLQHGLLADSSNWVTNLANSSLGFILADAGFDVWMGNSRGNTWSRKHKTLSVSQDEFWAFSYDEMAKYDLPASINFILNKTGQEQVYYVGHSQGTTIGFIAFSQIPELAKRIKMFFALGPVASVAFCTSPMAKLGRLPDHLIKDLFGDKEFLPQSAFLKWLGTHVCTHVILKELCGNLCFLLCGFNERNLNMSRVDVYTTHSPAGTSVQNMLHWSQAVKFQKFQAFDWGSSAKNYFHYNQSYPPTYNVKDMLVPTAVWSGGHDWLADVYDVNILLTQITNLVFHESIPEWEHLDFIWGLDAPWRLYNKIINLMRKYQ
LDL ([7]; same time period): a reduction in LDL was also observed | total cholesterol, HDL cholesterol, and triglycerides ([7]; versus original baseline, p<0.05): significantly improved | liver transaminase levels ([7]; weekly then every other week infusions): sustained impact of SBC-102 on reducing liver transaminase levels
